The record followed here is patent US20160046610A1, “3-HETEROARYL SUBSTITUTED INDAZOLES” (BAYER PHARMA AKTIENGESELLSCHAFT, priority 2013, published 2016).

The subject of experiment [1] is HeLa cell line. In words: Proliferation assay (HeLa cell line), crystal violet staining. In kind it is cell-based. To be noted: Homo sapiens, 96 h, read-out: Biological Assay 2: Proliferation assay (HeLa cell line) median IC50. The procedure: Cultivated tumor cells (cells were ordered from ATCC, except HeLa-MaTu and HeLa-MaTu-ADR, which were ordered from EPO-GmbH, Berlin) were plated at a density of 1000 to 5000 cells/well, depending on the growth rate of the respective cell line, in a 96-well multititer plate in 200 μL of their respective growth medium supplemented 10% fetal calf serum. After 24 hours, the cells of one plate (zero-point plate) were stained with crystal violet (see below), while the medium of the other plates was replaced by fresh culture medium (200 μL), to which the test substances were added in various concentrations (0 μM, as well as in the range of 0.001-10 μM; the final concentration of the solvent dimethyl sulfoxide was 0.5%). The cells were incubated for 4 days in the presence of test substances. Cell proliferation was determined by staining the cells with crystal violet: the cells were fixed by adding 20 μl/measuring point of an 11% glutaric aldehyde solution for 15 minutes at room temperature. After three washing cycles of the fixed cells with water, the plates were dried at room temperature. The cells were stained by adding 100 μl/measuring point of a 0.1% crystal violet solution (pH 3.0). After three washing cycles of the stained cells with water, the plates were dried at room temperature. The dye was dissolved by adding 100 μl/measuring point of a 10% acetic acid solution. Absorption was determined by photometry at a wavelength of 595 nm. The change of cell number, in percent, was calculated by normalization of the measured values to the absorption values of the zero-point plate (=0%) and the absorption of the untreated (0 μm) cells (=100%). The IC50 values were determined by means of a 4 parameter fit using the company's own software.

Experiment [2] addresses T1, catalytic domain of human Bub1 (amino acids 704-1085) (Homo sapiens, UniProt O43683).
T1 construct: catalytic domain of human Bub1 (amino acids 704-1085); His6 (N); made in house; host or cells: Hi5 insect cells
The experiment in a line: Bub1 kinase assay (TR-FRET). The format is biochemical. As to the method:
To this end, 100-fold concentrated compound solutions (in DMSO) were previously prepared by serial dilution (1:3.4) of 2 mM stocks in a clear low volume 384-well source microtiter plate (Greiner Bio-One, Frickenhausen, Germany), from which 50 nl of compounds were transferred into a black low volume test microtiter plate from the same supplier. […] The resulting mixture (5 μL final volume) was incubated at 22° C. during 60 min., and the reaction was stopped by the addition of 5 μL of an aqueous EDTA-solution (50 mM EDTA, in 100 mM HEPES pH 7.5 and 0.2% (w/v) bovine serum albumin) which also contained the TR-FRET detection reagents (0.2 μM streptavidin-XL665 [Cisbio Bioassays, Codolet, France] and 1 nM anti-phosho-Serine antibody [Merck Millipore, cat. #35-001] and 0.4 nM LANCE EU-W1024 labeled anti-mouse IgG antibody [Perkin-Elmer, product no. AD0077, alternatively a Terbium-cryptate-labeled anti-mouse IgG antibody from Cisbio Bioassays can be used]). The stopped reaction mixture was further incubated 1 h at 22° C. in order to allow the formation of complexes between peptides and detection reagents. Subsequently, the amount of product was evaluated by measurement of the resonance energy transfer from the Eu-chelate-antibody complex recognizing the Phosphoserine residue to the streptavidin-XL665 bound to the biotin moiety of the peptide. […] IC50 values were calculated by fitting the normalized inhibition data to a 4-parameter logistic equation (Minimum, Maximum, IC50, Hill; Y=Max+(Min−Max)/(1+(X/IC50)Hill)).

Setting [3] is: TR-FRET, recombinant catalytic domain of human Bub1, ATP 10 μM, peptide substrate 1 μM, median value, read-out: Biological Assay 1: Bub1 kinase assay median IC50.
Setting [4] is: HeLa cells, incubated for 4 days with test substance, crystal violet staining, median value.

Read-outs that look alike come from different tables or passages of the source. Where only a bound is given, the exact number is not on record here.

T1 sequence (O43683 704-1085): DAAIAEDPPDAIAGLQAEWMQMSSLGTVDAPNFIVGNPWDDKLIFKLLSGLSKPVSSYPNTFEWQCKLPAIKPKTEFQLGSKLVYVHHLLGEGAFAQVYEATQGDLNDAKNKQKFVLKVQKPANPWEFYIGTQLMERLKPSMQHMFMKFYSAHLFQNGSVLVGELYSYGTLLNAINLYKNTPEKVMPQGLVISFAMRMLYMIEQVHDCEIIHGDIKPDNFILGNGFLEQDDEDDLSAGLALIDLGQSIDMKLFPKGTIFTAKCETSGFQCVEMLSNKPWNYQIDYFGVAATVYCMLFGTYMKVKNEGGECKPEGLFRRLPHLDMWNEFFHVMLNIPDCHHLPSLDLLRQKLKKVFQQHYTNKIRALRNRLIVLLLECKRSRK

With `CCOc1cc(F)c(Cn2nc(-c3ncc(OC)c(Nc4ccccc4)n3)c3ccccc32)c(F)c1` [Example 2-1-1, 2-[1-(4-ethoxy-2,6-difluorobenzyl)-1H-indazol-3-yl]-5-methoxy-N-phenylpyrimidin-4-amine], the IC50 in experiment [1] (HeLa) is above 10000 nM; in experiment [2] (setting [3]), 1500 nM.

Consider `COc1ccc(Cn2nc(-c3ncc(OC)c(Nc4cccnc4)n3)c3ccccc32)cc1` [Example 2-1-3, 5-methoxy-2-[1-(4-methoxybenzyl)-1H-indazol-3-yl]-N-(pyridin-3-yl)pyrimidin-4-amine], for which the IC50 in experiment [1] (HeLa) stood at 3600 nM; in experiment [2] (setting [3]) it was 2600 nM.

Turning to `COc1ccc(Cn2nc(-c3ncc(OC)c(Nc4ccnn4C)n3)c3ccccc32)cc1` [Example 2-1-4, 5-methoxy-2-[1-(4-methoxybenzyl)-1H-indazol-3-yl]-N-(1-methyl-1H-pyrazol-5-yl)pyrimidin-4-amine], the IC50 in experiment [2] (setting [3]) turned out to be 3300 nM.

As for `COc1ccc(Cn2nc(-c3ncc(OC)c(Nc4ccccc4)n3)c3ccccc32)cc1` [Example 2-1-5, 5-methoxy-2-[1-(4-methoxybenzyl)-1H-indazol-3-yl]-N-phenylpyrimidin-4-amine], in experiment [2] (setting [3]), the IC50 was found to be 3700 nM.

`COc1ccc(Cn2nc(-c3ncc(OC)c(Nc4ccc(F)cc4)n3)c3ccccc32)cc1` [Example 2-1-6, N-(4-fluorophenyl)-5-methoxy-2-[1-(4-methoxybenzyl)-1H-indazol-3-yl]pyrimidin-4-amine]: the IC50 in experiment [2] (setting [3]) was 8800 nM.

For `CCOc1cc(F)c(Cn2nc(-c3ncc(OC)c(Nc4ccnnc4)n3)c3ccccc32)c(F)c1` [Example 2-2-1, N-{2-[1-(4-ethoxy-2,6-difluorobenzyl)-1H-indazol-3-yl]-5-methoxypyrimidin-4-yl}pyridazin-4-amine], the figures for the IC50 in experiment [1] (HeLa) and in experiment [2] (setting [3]) were above 10000 nM and 11 nM, respectively.

Regarding `CCOc1cc(F)c(Cn2nc(-c3ncc(OC)c(Nc4ccncn4)n3)c3ccccc32)c(F)c1` [Example 2-2-2, 2-[1-(4-ethoxy-2,6-difluorobenzyl)-1H-indazol-3-yl]-5-methoxy-N-(pyrimidin-4-yl)pyrimidin-4-amine], the IC50 in experiment [1] (HeLa) was above 10000 nM; in experiment [2] (setting [3]) it was 22 nM.

As to `CCOc1cc(F)c(Cn2nc(-c3cc(Nc4ccncn4)ncn3)c3ccccc32)c(F)c1` [Example 2-2-3, 6-[1-(4-ethoxy-2,6-difluorobenzyl)-1H-indazol-3-yl]-N-(pyrimidin-4-yl)pyrimidin-4-amine], the IC50 stood at 5000 nM in experiment [1] (HeLa) and 25 nM in experiment [2] (setting [3]).

Consider `CCOc1cc(F)c(Cn2nc(-c3ncc(OC)c(Nc4ccccc4C(=O)O)n3)c3ccccc32)c(F)c1` [Example 2-2-4, 2-({2-[1-(4-ethoxy-2,6-difluorobenzyl)-1H-indazol-3-yl]-5-methoxypyrimidin-4-yl}amino)benzoic acid], for which, in experiment [2], the IC50 turned out to be 290 nM.

In turn, `CCOc1cc(F)c(Cn2nc(-c3ncc(OC)c(Nc4ccc(F)cc4C(=O)O)n3)c3ccccc32)c(F)c1` [Example 2-2-5, 2-({2-[1-(4-ethoxy-2,6-difluorobenzyl)-1H-indazol-3-yl]-5-methoxypyrimidin-4-yl}amino)-5-fluorobenzoic acid] came in with an IC50 in experiment [2] of 180 nM.

Turning to `CCOc1cc(F)c(Cn2nc(-c3ncc(OC)c(Nc4cncc(C(=O)NC)n4)n3)c3ccccc32)c(F)c1` [Example 2-2-6, 6-({2-[1-(4-ethoxy-2,6-difluorobenzyl)-1H-indazol-3-yl]-5-methoxypyrimidin-4-yl}amino)-N-methylpyrazine-2-carboxamide], the IC50 in experiment [1] (HeLa) is above 10000 nM; in experiment [2] (setting [3]), 660 nM.

For the molecule `CCCc1ccc(Cn2nc(-c3ncc(OC)c(Nc4ccncn4)n3)c3ccccc32)cc1` [Example 2-3-1, 5-methoxy-2-[1-(4-propylbenzyl)-1H-indazol-3-yl]-N-(pyrimidin-4-yl)pyrimidin-4-amine], the values for the IC50 in experiment [1] (HeLa) and in experiment [2] (setting [3]) were above 10000 nM and 44 nM, respectively.

Turning to `CCOc1cc(F)c(Cn2nc(-c3ncc(OC)c(Nc4ccc(O)cc4)n3)c3ccccc32)c(F)c1` [Example 2-4-1, 4-({2-[1-(4-ethoxy-2,6-difluorobenzyl)-1H-indazol-3-yl]-5-methoxypyrimidin-4-yl}amino)phenol], the values for the IC50 in experiment [1] (HeLa) and in experiment [2] (setting [3]) were 6900 nM and 240 nM, respectively.

`CCOc1cc(F)c(Cn2nc(-c3cc(Nc4ccncn4)ccn3)c3ccccc32)c(F)c1` [Example 2-5-1, N-{2-[1-(4-ethoxy-2,6-difluorobenzyl)-1H-indazol-3-yl]pyridin-4-yl}pyrimidin-4-amine]: the IC50 in experiment [1] (HeLa) is above 10000 nM; in experiment [2] (setting [3]) it was 14 nM.

As to `CCOc1cc(F)c(Cn2nc(-c3cc(Nc4ncncn4)ccn3)c3ccccc32)c(F)c1` [Example 2-5-2, N-{2-[1-(4-ethoxy-2,6-difluorobenzyl)-1H-indazol-3-yl]pyridin-4-yl}-1,3,5-triazin-2-amine], the IC50 in experiment [1] (HeLa) is 2900 nM; in experiment [2] (setting [3]), 21 nM.

With `CCOc1cc(F)c(Cn2nc(-c3cc(Nc4cnsc4)ccn3)c3ccccc32)c(F)c1` [Example 2-5-3, 2-[1-(4-ethoxy-2,6-difluorobenzyl)-1H-indazol-3-yl]-N-(1,2-thiazol-4-yl)pyridin-4-amine], the figures for the IC50 in experiment [1] (HeLa) and in experiment [2] (setting [3]) were above 10000 nM and 720 nM, respectively.

Consider `CCOc1cc(F)c(Cn2nc(-c3cc(Nc4ccncn4)ccn3)c3cnccc32)c(F)c1` [Example 2-5-4, N-{2-[1-(4-ethoxy-2,6-difluorobenzyl)-1H-pyrazolo[4,3-c]pyridin-3-yl]pyridin-4-yl}pyrimidin-4-amine], for which the IC50 in experiment [2] was 220 nM.

With `COc1ccc(Cn2nc(-c3nccc(Nc4nnc(N)[nH]4)n3)c3ccccc32)cc1` [Example 2-5-5, N-{2-[1-(4-methoxybenzyl)-1H-indazol-3-yl]pyrimidin-4-yl}-4H-1,2,4-triazole-3,5-diamine], the IC50 in experiment [2] (setting [3]) was 2800 nM.

As to `Fc1cccc(F)c1Cn1nc(-c2cc(Nc3ccncn3)ccn2)c2ccccc21` [Example 2-6-2, N-{2-[1-(2,6-difluorobenzyl)-1H-indazol-3-yl]pyridin-4-yl}pyrimidin-4-amine], the IC50 in experiment [1] (setting [4]) was above 10000 nM; in experiment [2], 13 nM.

As for `CCCc1ccc(Cn2nc(-c3cc(Nc4ccncn4)ccn3)c3ccccc32)cc1` [Example 2-6-3, N-{2-[1-(4-propylbenzyl)-1H-indazol-3-yl]pyridin-4-yl}pyrimidin-4-amine], the IC50 in experiment [1] (setting [4]) was 6900 nM; in experiment [2], 28 nM.

With `Cn1cc(Nc2ccnc(-c3nn(Cc4ccccc4F)c4ccccc34)c2)cn1` [Example 2-6-4, 2-[1-(2-fluorobenzyl)-1H-indazol-3-yl]-N-(1-methyl-1H-pyrazol-4-yl)pyridin-4-amine], the IC50 in experiment [2] was 17000 nM.

Regarding `CCOc1cc(F)c(Cn2nc(-c3cc(Nc4cn[nH]c4)ccn3)c3ccccc32)c(F)c1` [Example 2-7-1, 2-[1-(4-ethoxy-2,6-difluorobenzyl)-1H-indazol-3-yl]-N-(1H-pyrazol-4-yl)pyridin-4-amine], the IC50 amounted to 2400 nM in experiment [1] (HeLa) and 17 nM in experiment [2] (setting [3]).

As for `CCOc1cc(F)c(Cn2nc(-c3cc(Nc4ncnn4CC)ccn3)c3ccccc32)c(F)c1` [Example 2-8-1, 2-[1-(4-ethoxy-2,6-difluorobenzyl)-1H-indazol-3-yl]-N-(1-ethyl-1H-1,2,4-triazol-5-yl)pyridin-4-amine], the IC50 in experiment [2] (setting [3]) is 120 nM.

For the molecule `CCOc1cc(F)c(Cn2nc(-c3cc(Nc4nnc[nH]4)ccn3)c3ccccc32)c(F)c1` [Example 2-8-2, 2-[1-(4-ethoxy-2,6-difluorobenzyl)-1H-indazol-3-yl]-N-(4H-1,2,4-triazol-3-yl)pyridin-4-amine], the IC50 in experiment [2] (setting [3]) was 800 nM.

As for `Oc1cnc(-c2nn(Cc3ccccc3F)c3ccccc23)nc1Nc1ccncn1` [Example 2-9-1, 2-[1-(2-fluorobenzyl)-1H-indazol-3-yl]-4-(pyrimidin-4-ylamino)pyrimidin-5-ol], the IC50 is above 10000 nM in experiment [1] (HeLa) and 13 nM in experiment [2] (setting [3]).
